Structures are written as SMILES.

Assay type in all cases: functional, cell-based
In one assay the test system is A2058. As to the kind of experiment: Cytotoxicity against human A2058 cells after 96 hrs by CellTire-Glo luminescent assay. As to conditions: A2058, 96 h.
The subject of a further assay is A2780. As to the kind of experiment: Cytotoxicity against human A2780 cells after 2 days by alamar Blue assay. As to conditions: A2780, 48 h. (In general: Alamar Blue is a resazurin reagent that responds to reducing activity.)
Assay [1] in a line: Cytotoxicity against human H522-T1 cells after 96 hrs by CellTire-Glo luminescent assay. As to conditions: H522-T1, 96 h.

With `CC1(O)OC(=O)C2=C1CC[C@H]1[C@]3(C)CC[C@H]4C(C)(C)CCC[C@]4(CO)[C@H]3C[C@@H](O)[C@]21C` (stereo partly specified), the IC50 (in general, the concentration that gives 50% inhibition) was more than 10000 nM in the assay on A2058, 8700 nM in the assay on A2780 and more than 10000 nM in assay [1].
`CC(=O)O[C@H]1C[C@H]2[C@@](C)(CC[C@H]3C(C)(C)CCC[C@@]32CO)[C@@H]2CC=C(C(C)=O)[C@H](C=O)[C@@]12C` gave a half-maximal inhibitory concentration (IC50) in the assay with A2780 of 650 nM.
As for `CC(=O)C1=CC[C@H]2[C@]3(C)CC[C@H]4C(C)(C)CCC[C@]4(CO)[C@H]3C[C@@H](O)[C@]2(C)[C@H]1C=O` (relative stereo), the IC50 was more than 370 nM in the assay on A2058, 280 nM with A2780 and 610 nM in assay [1].
With `CC1(C)CCC[C@@]2(CO)[C@H]1CC[C@]1(C)[C@@H]2C[C@@H](O)[C@]2(C)[C@H]3C=CC(=O)C3=CC[C@@H]12` (relative stereo), the IC50 in the assay on A2058 was 4170 nM; in the assay on A2780, 4500 nM; in assay [1], 5280 nM.
The like results for `CC(=O)C1=CC[C@H]2[C@]3(C)CC[C@H]4C(C)(C)CCC[C@]4(CO)[C@H]3C[C@H](O)[C@]2(C)[C@@H]1C=O` (relative stereo) were, in that order, 1830 nM, 260 nM and 1700 nM.
The like results for `CC(=O)O[C@H]1C(=O)[C@@]2(C)[C@H]([C@H](OC(=O)c3ccccc3)[C@]3(O)C[C@H](OC(=O)[C@H](O)[C@@H](NC(=O)c4ccccc4)c4ccccc4)C(C)=C1C3(C)C)[C@]1(OC(C)=O)CO[C@@H]1C[C@@H]2O` [PACLITAXEL] were, in that order, 4.7 nM, 12 nM and 8.1 nM.

Values taken from ChEMBL document CHEMBL2385065, “Antiproliferative homoscalarane sesterterpenes from two Madagascan sponges” (Bioorg Med Chem, 2013).
